Consider 2 compounds from patent US20240140947A1, “COMPOUND FOR THE TREATMENT OF CANCER” (priority 2022, published 2024).

Data set [1] can be described thus: Dog i.v. pharmacokinetic study. The format is in vivo. Particulars: for Vd: dog, plasma, iv, 0.1 mg/kg, male Beagle dogs, read-out: Dog Vdss. The protocol: Dog PK studies were done at Pfizer (Groton, CT); animal care and in vivo procedures were conducted according to guidelines from the Pfizer Institutional Animal Care and Use Committee. Male Beagle dogs were purchased from Marshall BioResources (North Rose, New York) and were typically 1-5 years of age at the time of dosing. Compounds were administered i.v. via the cephalic vein (n=2), dosed as a solution using standard compatible excipients at 0.5 mL/kg for a resulting dose of 0.1 mg/kg. Serial blood samples were collected via the jugular vein at predetermined timepoints after dosing. Animals were monitored for pain or distress throughout the study, with at least daily monitoring during normal husbandry prior to study start. Blood samples were collected into tubes containing K3EDTA and stored on ice until centrifugation to obtain plasma, which was stored frozen at −20° C. or lower. Urine samples were collected at room temperature and stored frozen at −20° C. or lower at the end of each time interval. Plasma samples from the animal PK studies were processed using protein precipitation with acetonitrile: methanol (1:1) containing internal standard verapamil followed by quantitation by LC-MS/MS against a standard curve prepared in blank plasma. Pharmacokinetic parameters were calculated using noncompartmental analysis (Watson v.7.5, Thermo Scientific).

The nature of data set [2]: Human plasma protein binding (equilibrium dialysis). The format is in vitro ADME. The conditions noted are these: 6-hour incubation, pH 7.4, read-out: fup: human plasma unbound fraction. The protocol:
Frozen plasma in K3EDTA was purchased from BiolVT and Dulbecco's phosphate buffered saline (DPBS) and HCl were purchased from Sigma. Human plasma unbound fraction (fu r) was determined by equilibrium dialysis using an HTD 96 device (HTDialysis, LLC, Gales Ferry, CT) assembled with 12-14k MWCO membranes. Plasma was thawed and adjusted to pH 7.4 with 1 N HCl prior to use. Dialysis chambers were loaded with 150 μL plasma and 150 μL PBS in the donor and receiver chambers, respectively. The dialysis plate was sealed with a gas-permeable membrane and stored in a 37° C. water-jacked incubator maintained at 75% relative humidity and 5% CO2, on a 100 rpm plate shaker. After a 6-hour incubation, samples were matrix-matched and quench by protein precipitation, followed by LC-MS analysis. A set of satellite samples was included to measure stability after a 6-hour incubation. Incubations were conducted with 4 to 12 replicates. The fup was calculated by dividing the analyte-to-internal standard peak area ratio or analyte concentration in the buffer sample by the signal in the donor sample, corrected for any dilution factors.
On the technique in general: Equilibrium dialysis compares concentrations on both sides of a semipermeable membrane.

The next data set has as its system MCF7 parental. The data set can be described thus: Cell proliferation assay (CYQUANT, 7 days), MCF7 parental. The format is cell-based. Particulars: Homo sapiens, read-out: IC50 ± SEM, proliferation inhibition. Here is the method:
(§1) Cellular CDK activity of Compound 1 and PF-06873600 were assessed in human CCNE1-amplified ovarian cancer cell line model OVCAR3 and human ER+ breast cancer cell line model MCF7 cells. […] OVCAR3 cells were treated overnight with 1 mM hydroxyurea to enrich for G1/S phase cells prior to treatment with inhibitors. Functional effects were measured in a 7-day anti-proliferation assay in one human ovarian cancer (OVCAR3), two human ER+ breast cancer (MCF7 and T47D) and three human non-small cell lung cancer (NCIH2087, NCIH358 and A549) cell line models.
(§2) OVCAR3, MCF7, T47D, HCC1428, NCIH2087, NCIH358 or A549cells were seeded 1-3000 cells/well in 96-well plates in growth media containing 10% FBS and cultured overnight at 37° C. 5% CO2. The following day, compounds were serially diluted from a 10 mM top dose for an 11-point 3-fold dilution curve in DMSO. […] CYQUANT Direct Cell Proliferation Assay (Molecular Probes, Eugene, OR) was then performed following manufacturer recommendations to determine the relative viable cell numbers on the Perkin Elmer Envision 2104 Multi Label Reader at 508 nm excitation and 527 nm emission wavelengths. IC50 values were calculated by concentration-response curve fitting utilizing a four-parameter analytical method using GraphPad Prism software.

In the next data set the test system is A549. Nature of the data set: Cell proliferation assay (CYQUANT, 7 days), A549. The format is cell-based. The conditions noted are these: Homo sapiens, read-out: IC50 ± SEM, proliferation inhibition. Here is the method: as §1, §2
A short description of data set [3]: Prediction of human clearance, volume of distribution and elimination half-life. Particulars: for Mean Vdss unbound: (mean animal Vdss unbound values): Wistar-Hannover (rat), rat and/or dog, iv; for CLb: predicted total clearance: scaled from CLint HHEP and fub, Q=20 ml/min/kg. The protocol:
To determine and compare the predicted human elimination half-lives, compounds 1-4 were evaluated for their human blood-to-plasma partition ratio (BPR) along with other key in vitro ADME data including metabolic stability in human hepatocytes (CL, nt HHEP).
The predicted total clearance in human (CLb) was first determined based on the in vitro human metabolism data shown below using the equation:
CLb=(Q·fub·CLintHHEP)/[(Q+fub)·CLintHHEP]
(Scaling Clint HHEP from μl/min/M to ml/min/kg based on hepatocellularity (120×10^6/ g liver), g of liver per Kg bodyweight (21g/Kg), assuming hepatocyte binding is negligible and liver blood flow Q=20 ml/min/kg.)
The projected human volume of distribution at steady state in human blood (Vdss_human) was then calculated based on the animal (rat and/or dog) PK data. The Vdss_human was calculated factoring in differences in blood binding across compounds. Due to the high blood-to-plasma partition ratio in Compounds 1 and 4, the corresponding Vdss_human was limited to the blood volume with Vdss_human estimated to be 0.07 L/Kg.
Using the estimates of CLb and Vdss_human, the predicted human elimination half-lives of compounds 1-4 were calculated according to the equation:
Half-life=0.693·Vdss_human/CLb

Another data set deals with HCC1428 PalboR. Nature of the data set: Cell proliferation assay (CYQUANT, 7 days), HCC1428 PalboR. It counts as cell-based. The conditions noted are these: Homo sapiens, read-out: IC50 ± SEM, proliferation inhibition. The protocol:
OVCAR3, MCF7, T47D, HCC1428, NCIH2087, NCIH358 or A549cells were seeded 1-3000 cells/well in 96-well plates in growth media containing 10% FBS and cultured overnight at 37° C. 5% CO2. The following day, compounds were serially diluted from a 10 mM top dose for an 11-point 3-fold dilution curve in DMSO. Compound 1 and PF-06873600 were intermediately diluted 1:200 into growth media prior to diluting 1:5 on cells for final concentration 10 μM to 0.1 nM in 0.1% DMSO on cells. Cells were incubated at 37° C. 5% CO2 for 7 days. CYQUANT Direct Cell Proliferation Assay (Molecular Probes, Eugene, OR) was then performed following manufacturer recommendations to determine the relative viable cell numbers on the Perkin Elmer Envision 2104 Multi Label Reader at 508 nm excitation and 527 nm emission wavelengths. IC50 values were calculated by concentration-response curve fitting utilizing a four-parameter analytical method using GraphPad Prism software.
The effect of Compound 1 on cell proliferation was assessed in multiple ER+ breast cancer cell lines, including parental and palbociclib resistant cell lines.

Data set [4] can be described thus: Human hepatocyte stability. It counts as in vitro ADME. Particulars: hepatocytes, 0.5 million cells/mL, 37° C., 4 hours, read-out: CLint HHEP: CLint in human hepatocytes (in vitro).
Description: At various time points, samples were taken and analyzed by LC-MS/MS. CLint HHEP was calculated based on loss of parent compound over time using equations discussed in “A novel relay method for determining low-clearance values,” Drug Metab Dispos., 2012; 40(9):1860-5.
A further data set deals with T47D parental. Nature of the data set: Cell proliferation assay (CYQUANT, 7 days), T47D parental. It counts as cell-based. Particulars: Homo sapiens, 168 h, read-out: IC50 ± SEM, proliferation inhibition. Here is the method:
as §1, §2

The structures appear in SMILES notation. Like-named read-outs stand apart in the source and are kept apart here.

Consider `C[C@@]1(O)CCC[C@H]1n1c(=O)c(CC(F)F)cc2cnc(NC3CCN(S(N)(=O)=O)CC3)nc21` [Compound 1, 4-({6-(2,2-difluoroethyl)-8-[(1R,2R)-2-hydroxy-2-methylcyclopentyl]-7-oxo-7,8-dihydropyrido[2,3-d]pyrimidin-2-yl}amino)piperidine-1-sulfonamide], for which, in data set [1], the “Dog Vdss unbound: (Dog Vdss/dog plasma fu)” value was determined as 6.7 L/kg and the Vd came out at 1.5 L/kg. In addition, the free fraction (fraction unbound) (in general, the share of the substance not bound to proteins or other matrix) at 6 h in data set [2] worked out at 0.174. The IC50 in the data set with MCF7 parental (168 h, MCF7 parental, 7 days, mean) worked out at 16.8 ± 6.7 nM. In addition, in the data set on A549 (168 h, A549, 7 days, mean), the IC50 was determined as 121 ± 10.1 nM. Also, the “Mean Vdss unbound: (mean animal Vdss unbound values)” value in data set [3] was 8.8 L/kg. For the same compound, in data set [3] (human), the “(adjusted) predicted t1/2 based on PF-06873600's observed t1/2” value is 34 h, the “Vdss—human limited to the blood volume (lower limit)” value is 0.07 L/kg, the “Vdss—human: projected volume of distribution (steady state)” value is listed as 0.019 L/kg L/Kg and the “CLb: predicted total clearance” value was 0.011 mL/min/kg. Besides, the IC50 with HCC1428 PalboR (168 h, HCC1428 PalboR, 7 days, mean) is 61.4 ± 4.9 nM. Besides, in data set [4], the hepatocyte CLint at 1 μM was around 2 µL/min/1e6 cells. Further, the IC50 in the data set on T47D parental (T47D parental, 7 days, mean) was determined as 17.6 ± 2.5 nM.
As to `C[C@@]1(O)CCC[C@H]1n1c(=O)c(C(F)F)cc2cnc(NC3CCN(S(C)(=O)=O)CC3)nc21` [Compound 2, reference compound], the “Dog Vdss unbound: (Dog Vdss/dog plasma fu)” value in data set [1] was determined as 2.8 L/kg. Besides, the Vd in data set [1] was 1.1 L/kg. Also, the free fraction (fraction unbound) at 6 h in data set [2] is 0.288. In addition, the IC50 in the data set on MCF7 parental (MCF7, 168 h) came out at 38.6 ± 10.2 nM; in the data set on A549 (A549, 168 h), 189 nM; with HCC1428 PalboR (HCC1428, 168 h), 269 ± 63.9 nM; in the data set with T47D parental (T47D), 70.6 ± 14.1 nM. In data set [3], the “Mean Vdss unbound: (mean animal Vdss unbound values)” value is 2.8 L/kg. Besides, the “Vdss—human: projected volume of distribution (steady state)” value in data set [3] (human) was 0.9 L/kg. Besides, in data set [3] (human), the “CLb: predicted total clearance” value is 1.5 mL/min/kg. In data set [4], the hepatocyte CLint at 1 μM is around 2 µL/min/1e6 cells.
